A word on the half-life: it is how long it takes for the measured level to halve. A low value points to rapid decline. Broadly, the IC50 is the concentration that gives 50% inhibition. Usually fraction unbound stands for free concentration divided by total concentration.

The values below come from patent US8093265B2, “Bicycloheteroaryl compounds as P2X7 modulators and uses thereof” (Renovis, Inc., priority 2007, dated 2012).

A short description of series [1]: Half-life in human liver microsomes (HLM). The class given is in vitro ADME. Particulars: human liver microsomes 0.78 mg/mL, 1 μM compound, NADPH, 37° C.; for half-life at 1 μM: pH 7.4. (Liver microsomes are vesicles of endoplasmic reticulum, rich in cytochrome P450 enzymes.)
Method: Half-Life in Human Liver Microsomes (HLM)
Test compounds (1 μM) are incubated with 3.3 mM MgCl2 and 0.78 mg/mL HLM (HL101) in 100 mM potassium phosphate buffer (pH 7.4) at 37° C. on the 96-deep well plate. The reaction mixture is split into two groups, a non-P450 and a P450 group. NADPH is only added to the reaction mixture of the P450 group. An aliquot of samples of P450 group is collected at 0, 10, 30, and 60 min time point, where 0 min time point indicated the time when NADPH is added into the reaction mixture of P450 group. […] Collected aliquots are extracted with acetonitrile solution containing an internal standard. […] The compound concentration in supernatant is measured by LC/MS/MS system.
The half-life value is obtained by plotting the natural logarithm of the peak area ratio of compounds/internal standard versus time. The slope of the line of best fit through the points yields the rate of metabolism (k). This is converted to a half-life value using following equations: Half-life=ln 2/k
The target of the next series is T1, P2X7 receptor (Homo sapiens, UniProt Q99572).
T1 construct: host or cells: THP-1 cells differentiated with LPS and IFN-γ
T1 sequence (Q99572 1-595): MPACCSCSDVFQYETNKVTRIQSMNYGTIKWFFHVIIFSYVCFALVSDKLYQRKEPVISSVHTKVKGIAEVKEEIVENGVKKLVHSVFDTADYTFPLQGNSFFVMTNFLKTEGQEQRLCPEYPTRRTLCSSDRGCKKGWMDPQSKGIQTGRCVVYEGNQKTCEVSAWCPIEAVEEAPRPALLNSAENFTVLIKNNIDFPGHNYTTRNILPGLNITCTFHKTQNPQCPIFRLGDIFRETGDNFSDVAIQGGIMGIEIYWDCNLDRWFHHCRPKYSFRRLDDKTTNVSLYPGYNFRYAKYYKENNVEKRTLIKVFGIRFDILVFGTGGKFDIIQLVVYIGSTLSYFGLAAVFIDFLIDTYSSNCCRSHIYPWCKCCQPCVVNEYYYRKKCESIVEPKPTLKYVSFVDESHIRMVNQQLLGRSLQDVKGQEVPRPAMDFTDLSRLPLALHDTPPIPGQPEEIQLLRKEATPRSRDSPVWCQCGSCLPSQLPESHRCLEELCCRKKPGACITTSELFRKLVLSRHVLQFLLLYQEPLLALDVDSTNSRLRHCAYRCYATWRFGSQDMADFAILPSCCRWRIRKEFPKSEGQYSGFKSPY
The series is described as follows: IL-1β release assay in differentiated THP-1 cells (Example 9). Format: cell-based. Particulars: THP-1 cells differentiated with LPS and IFN-γ; 30 min pretreatment; BzATP 250 uM; IL-1β by ELISA. Put shortly: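 THP-1 cells differentiated 16 h with LPS and IFN-γ (100 ng/mL each), re-primed 2 h with LPS, then pretreated 30 min with compound before 250 uM BzATP for 45 min. Supernatant IL-1β measured by ELISA; background-adjusted % inhibition fitted to a four-parameter logistic for IC50.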

A short description of series [2]: Pharmacokinetic evaluation following intravenous and oral administration in rats. Format: in vivo, rat. The note with it: male Sprague-Dawley rats; PO 1 to 5 mg/kg vs IV 1 mg/kg; AUCinf(PO)/AUCinf(IV) dose-normalized. On the procedure:
Pharmacokinetic Evaluation of Compounds Following Intravenous and Oral Administration in Rats.
Male Sprague-Dawley rats are acclimated for at least 24 hours prior to experiment initiation. During the acclimation period, all animals receive food and water ad libitum. However, food but not water is removed from the animals' cages at least 12 hours before initiation of the experiment. During the first 3 hours of experimentation, the animals receive only water ad libitum. At least three animals each are tested for intravenous and oral dosage. For intravenous formulation, compounds are dissolved (0.25 to 1 mg/mL) in a mixture of 3% dimethyl sulfoxide, 40% PEG 400 and the rest percentage of 40% Captisol in water (w/v). The animals are weighed before dosing. The determined body weight is used to calculate the dose volume for each animal. Dose volume (mL/kg)=1 mg/kg/formulation concentration (mg/mL)
In instances where the formulation concentrations are less than 0.5 mg/mL, the dosing volume is about 2 mL/kg.
For oral formulation, compounds of this invention are suspended (0.5 to 0.75 mg/mL) in a mixture of 5% of 10% Tween 80 in water (v/v) and 95% of 0.5% methyl cellulose in water (w/v). PO rats are typically dosed through oral gavage following the same dose volume formula as IV to achieve a dose level of 1 to 5 mg/kg. For IV dosing, blood samples are collected (using a pre-heparinized syringe) via the jugular vein catheter at 2, 5, 15, 30, 60, 120, 180, 300, 480, and 1440 minutes post dosing. For PO dosing blood samples are collected (using a pre-heparinized syringe) via the jugular vein catheter before dosing and at 5, 15, 30, 60, 120, 180, 300, 480, and 1440 minutes post dosing. About 250 uL of blood is obtained at each time point from the animal. Equal volumes of 0.9% normal saline are replaced to prevent dehydration. The whole blood samples are maintained on ice until centrifugation. Blood samples are then centrifuged at 14,000 rpm for 10 minutes at 4° C., and the upper plasma layer is then transferred into a clean vial and stored at −80° C. The resulting plasma samples are then analyzed by liquid chromatography-tandem mass spectrometry. Following the measurement of plasma samples and dosing solutions, plasma concentration-time curve is plotted. Plasma exposure is calculated as the area under the concentration-time curve extrapolated to time infinite (AUCinf). The AUCinf is averaged and the oral bioavailability (% F) for individual animal is calculated as: • AUCinf(PO)/AUCinf(IV), normalized to their respective dose levels.
The % F can be reported as the mean % F of all animals dosed orally with the compound of the invention at the specified level.
For the purpose of Table 3, the oral bioavailability of each compound is expressed as follows: […]

Series [3] is described as follows: Plasma protein binding by equilibrium dialysis, human plasma. The class given is in vitro ADME. The note with it: pH 7.4, equilibrium dialysis 16 hr at 37° C., % Bound. As to the method: The plasma protein binding of compounds of invention is measured in human and rat plasma, respectively. A stock solution of the tested compound is prepared in 1 mg/mL in DMSO solution. The stock solution is spiked into the blank plasma to get a final compound concentration at 1 μg/mL for testing. Equilibrium dialysis (The equilibrium dialyzer-96TM MWCO 5K Daltons, Harvard Apparatus) method is used for the testing purpose.
The compound spiked plasma (at […]) and phosphate buffer (0.1 M, pH 7.4), 200 μl each, are added into the opposite sides of the membrane in a 96-well equilibrium dialyzer, respectively. The dialyzer plate is covered and incubated overnight (16 hr) at 37° C. in the 8-plate rotor incubator (Big Shot III 8-plate rotor, Harvard Apparatus). Aliquots (100 μL) are taken from the plasma and the buffer compartments, respectively. The matrix effects are eliminated by adding the same volume of blank plasma into the samples from buffer compartments and adding the same volume of phosphate buffer into the samples from plasma compartments. The samples are extracted by using the regular (3:1) protein precipitation extraction procedure (acetonitrile with internal standard). The supernatants are taken for LC/MS/MS analysis. The percentage of plasma-protein binding can be calculated by using the following method: % Free=[Free Drug/Total Drug]*100=[(Peak Area)buffer/(Peak Area)plasma]*100 % Bound=100−% Free.
For the purpose of Table 4, the plasma protein binding of each compound is expressed as follows: […]

`C[C@H](C(N)=O)n1ccc2c(NC(=O)CC34CC5CC(CC(C5)C3)C4)c(Cl)ccc2c1=O` [Compound 2]: the half-life at 1 μM in series [1] is 0.8 h. In addition, the IC50 at P2X7 receptor is 0.1 nM. Moreover, in series [2], the “Oral Bioavailability F (%)” value is “+ (0-25% F)”.
Regarding `C[C@H](C(N)=O)n1ccc2c(NC(=O)Cc3cccc(C(F)(F)F)c3F)c(Cl)ccc2c1=O` [Compound 5, (R)-2-{6-Chloro-5-[2-(2-fluoro-3-trifluoromethyl-phenyl)-acetylamino]-1-oxo-1H-isoquinolin-2-yl}-propionamide], in series [1], the “Half Life” value was found to be 1.2 h. The half-inhibitory concentration (IC50) on P2X7 receptor amounted to 7 nM. For the same compound, the “Oral Bioavailability F (%)” value in series [2] is “+ (0-25% F)”.
For `C[C@H](CO)n1ccc2c(NC(=O)Cc3ccc(C(F)(F)F)cc3)c(Cl)ccc2c1=O` [Compound 10, N-[6-Chloro-2-((R)-2-hydroxy-1-methyl-ethyl)-1-oxo-1,2-dihydro-isoquinolin-5-yl]-2-(4-trifluoromethyl-phenyl)-acetamide], in series [3], the fraction unbound at 16 hr, 1 μg/mL was less than 0.1. Moreover, in series [1], the “Half Life” value came to 3.2 h. The IC50 on P2X7 receptor was determined as 10 nM. Also, in series [2], the “Oral Bioavailability F (%)” value was “++++ (>75% F)”.
The corresponding values for `C[C@H](CO)n1ccc2c(NC(=O)Cc3ccc(C(F)(F)F)c(F)c3)c(Cl)ccc2c1=O` [Compound 11, N-[6-Chloro-2-((R)-2-hydroxy-1-methyl-ethyl)-1-oxo-1,2-dihydro-isoquinolin-5-yl]-2-(3-fluoro-4-trifluoromethyl-phenyl)-acetamide] are less than 0.1, 1.6 h, 5 nM and “++++ (>75% F)”.
The compound `O=C(Cc1ccc(C(F)(F)F)c(F)c1)Nc1c(Cl)ccc2c(=O)n(CCO)ccc12` [Compound 16, N-[6-Chloro-2-(2-hydroxy-ethyl)-1-oxo-1,2-dihydro-isoquinolin-5-yl]-2-(3-fluoro-4-trifluoromethyl-phenyl)-acetamide] came in with a fraction unbound at 16 hr, 1 μg/mL in series [3] of less than 0.1. The “Half Life” value in series [1] came to 3.7 h. Also, on P2X7 receptor, the IC50 came to 6 nM. In addition, the “Oral Bioavailability F (%)” value in series [2] is “++++ (>75% F)”.
In series [3], `O=C(Cc1ccc(F)c(C(F)(F)F)c1)Nc1c(Cl)ccc2c(=O)n(CCO)ccc12` [Compound 19, N-[6-Chloro-2-(2-hydroxy-ethyl)-1-oxo-1,2-dihydro-isoquinolin-5-yl]-2-(4-fluoro-3-trifluoromethyl-phenyl)-acetamide] gave a fraction unbound at 16 hr, 1 μg/mL of less than 0.1. For the same compound, the “Half Life” value in series [1] is 1.1 h. In addition, the IC50 at P2X7 receptor was determined as 5 nM. Further, the “Oral Bioavailability F (%)” value in series [2] is “+ (0-25% F)”.
Take `Cc1ccc2c(=O)n([C@H](C)CO)ccc2c1NC(=O)Cc1ccc(Cl)c(F)c1` [Compound 26, 2-(4-Chloro-3-fluoro-phenyl)-N-[2-((R)-2-hydroxy-1-methyl-ethyl)-6-methyl-1-oxo-1,2-dihydro-isoquinolin-5-yl]-acetamide]: in series [3], the free fraction (fraction unbound) at 16 hr, 1 μg/mL was in the range of 0.1 to 0.24. This compound also showed a half-life at 1 μM in series [1] of 1.6 h. Moreover, on P2X7 receptor, the IC50 turned out to be 5 nM. Besides, the “Oral Bioavailability F (%)” value in series [2] is on record as “+++ (51-75% F)”.
As to `Cc1ccc2c(=O)n([C@H]3CCNC3)ccc2c1NC(=O)Cc1ccc(C(F)(F)F)c(F)c1` [Compound 29, 2-(3-Fluoro-4-trifluoromethyl-phenyl)-N-((S)-6-methyl-1-oxo-2-pyrrolidin-3-yl-1,2-dihydro-isoquinolin-5-yl)-acetamide], the half-life at 1 μM in series [1] was 3.5 h. In addition, the IC50 on P2X7 receptor came to 23 nM. For the same compound, the “Oral Bioavailability F (%)” value in series [2] is reported as “+ (0-25% F)”.
In series [1], `Cc1ccc2c(=O)n([C@H](C)CO)ccc2c1C(=O)NCC1CCCCCC1` [Compound 49, 2-((R)-2-Hydroxy-1-methyl-ethyl)-6-methyl-1-oxo-1,2-dihydro-isoquinoline-5-carboxylic acid cycloheptylmethyl-amide] showed a half-life at 1 μM of 0.3 h. Besides, the IC50 at P2X7 receptor is 0.7 nM. Moreover, in series [2], the “Oral Bioavailability F (%)” value is recorded as “+ (0-25% F)”.
In series [1], `Cc1ccc2c(=O)n([C@H](C)C(N)=O)ccc2c1NC(=O)Cc1ccc(C(F)(F)F)c(F)c1` [Compound 51, (R)-2-{5-[2-(3-Fluoro-4-trifluoromethyl-phenyl)-acetylamino]-6-methyl-1-oxo-1H-isoquinolin-2-yl}-propionamide] showed a half-life at 1 μM of 1.3 h. The IC50 on P2X7 receptor turned out to be 0.4 nM. Besides, in series [2], the “Oral Bioavailability F (%)” value was “+ (0-25% F)”.
